Assay [1] concerns tumor cells. Briefly: Histology of lung tissue after fatpad implantation or intravenous injection of tumor cells. The assay is classed as in vivo, mice. Conditions: four weeks after fatpad implantation or two weeks after intravenous injection of tumor cells, versus TAT. The source says: FIGS. 8A-8B are computer-generated photomicrographs of lung tissue from mice four weeks following fatpad implantation of tumor cells. Osmotic pumps were implanted 1 week after fatpad implantation, for delivering TAT (control; FIG. 8A) or αV5-3-TAT peptide (PKC a inhibitor; FIG. 8B).
FIGS. 8C-8D are computer-generated photomicrographs of lung tissue from mice two weeks after intravenous injection of tumor cells. Osmotic pumps were implanted two days prior to […], for delivering TAT (control; FIG. 8C) or αV5-3-TAT peptide (PKC a inhibitor; FIG. 8D).
FIGS. 8A-8D are computer-generated photomicrographs of lung tissue from mice four weeks following fatpad implantation of tumor cells (FIGS. 8A-8B) or two weeks after intravenous injection of tumor cells (FIGS. 8C-8D).

For assay [2], the system named is tumor cells. Briefly: Adhesion of intravenously injected tumor cells to the lungs (imaging). The assay is classed as in vivo, mice. To be noted: for adhesion of tumor cells in the lung, imaging: versus TAT. How it is done:
FIG. 7A is a bar graph showing the affect of αV5-3-TAT peptide on the adhesion of tumor cells into the lungs. Animals were treated with TAT carrier peptide (TAT), or αV5-3-TAT peptide (PKC alpha inhibitor), initiated two days before, and continued for 12 days following, injection of tumor cells intravenously;
FIGS. 7B-7C are images of mice two days after treatment as described in FIG. 7A. The mice in FIG. 7B were treated with TAT and the mice in FIG. 7C treated with αV5-3-TAT peptide.
FIGS. 7D-7E are images of mice following five days of treatment as described in FIG. 7A. The mice in FIG. 7D were treated TAT (control) and the mice in FIG. 7E were treated with αV5-3-TAT peptide (PKC a inhibitor).
For example, FIG. 7A is a bar graph showing the affect of αV5-3-TAT peptide on the adhesion of tumor cells into the lungs. In this experiment, animals were treated with TAT carrier peptide (TAT), or αV5-3-TAT peptide (PKC alpha inhibitor), for two days before injection of tumor cells intravenously. Adhesion of tumor cells to the lung was reduced in animals treated with the PKC alpha inhibitor compared to control animals.
FIGS. 7B and 7C are images of representative mice two days after treatment. The mice in FIG. 7B were treated with TAT and the mice in FIG. 7C treated with αV5-3-TAT peptide. […] FIGS. 7D-7E are images of mice following five days of treatment. The mice in FIG. 7D were treated TAT (control) and the mice in FIG. 7E were treated with αV5-3-TAT peptide (PKC a inhibitor).

The subject of assay [3] is tumor cells. The assay is described as follows: Survival of animals after intravenous administration of tumor cells. In kind it is in vivo, mice. To be noted: versus saline (PBS). How it is done:
FIG. 9 is a graph showing the percent surviving animals in the time (in days) following intravenous administration of tumor cells. The mice were treated with saline (squares; PBS) or the αV5-3-TAT peptide (circles; peptide).

In assay [4] the test system is matrix metalloproteinase 2 (MMP2). The assay is described as follows: MMP2 activity in tumor cells from treated animals. The assay is classed as in vivo. Conditions: cells from primary tumors of treated animals, versus saline or TAT, FIG. 10C. The source says:
FIG. 10C is a bar graph showing the relative levels of matrix metalloproteinase 2 (MMP2) activity in tumor cells from animals treated with saline or TAT (untreated) or the αV5-3-TAT peptide (aV5-3).
Cells from primary tumors in animals treated with the αPKC inhibitor were also isolated and assayed for levels of CXCR4 (FIG. 10B) and levels of matrix metalloproteinase 2 (MMP2) activity (FIG. 10C).

The subject of a further assay is 4T1 cells. Briefly: Wound healing (migration) assay, 4T1. To be noted: peptide 1 uM, re-applied every 2 h for 8 h. In kind it is cell-based, mouse. How it is done: FIGS. 16A-16D are micrographs showing the efficacy of TAT carrier peptide (TAT; FIG. 16A), αV5-3-TAT peptide (Alpha; FIG. 16B), βIIV5-3 peptide (Beta2; FIG. 16C), and εV1-2 (Epsilon; FIG. 16D) on 4T1 cell migration.
To investigate the role of PKC inhibitors in reducing the migration of tumor cells, in vitro migration assays were performed using MDA-MB-231 breast cancer cells (FIGS. 12A-12D), MCF-7 breast cancer cell (FIGS. 13A-13D), JC cells (FIGS. 15A-15D), and 4T1 cells (FIGS. 16A-16D), in the presence of TAT carrier peptide (TAT), αV5-3-TAT peptide (Alpha), βIIV5-3 peptide (Beta2), or εV1-2 peptide (Epsilon).
Wound healing assay: Human or mouse breast cancer cell lines were grown in 6-well plates until about 90% confluent. Cells were then grown in serum free media overnight, before media was changed to media +1% FBS and peptide PKC inhibitors added (1 uM), at the same time a pipette tip was drawn across the cell layer to create a scrape ‘wound’. PKC inhibitors were re-applied every 2 h for a total of 8 h, before cells were left for a further 12 h and then the scrape was examined under phase contrast microscopy.

A further assay relates to JC tumor cells. The assay is described as follows: Growth rate of JC tumor cells in vitro. In kind it is cell-based, mouse. To be noted: doses of 0, 1, 5 and 10 μM, compared to TAT carrier peptide control. On the procedure:
FIGS. 6B-6C are bar graphs showing the affect of the αV5-3-TAT peptide on growth rate of JC tumor cells (FIG. 6B) and 4T1 tumor cells (FIG. 6C) in vitro. The cells treated with the TAT carrier peptide (TAT) or with αV5-3-TAT peptide (PKC alpha inhibitor), at doses of 0, 1, 5, and 10 μM.
(§1) To determine if the effects observed with the α and βIIPKC peptide inhibitors was due to a decrease in metastasis as opposed to a decrease in primary tumor growth, animals injected with 4T1 tumor cells were treated with saline, the αV5-3-TAT conjugate peptide (αPKC), or the βIIV5-3-TAT conjugate peptide (βPKC) and the number of tumors cells at the primary site of injection were determined.

The test system of the next assay is beta-1 integrin. The assay is described as follows: Beta-1 integrin expression in cells from primary tumors. In kind it is in vivo. To be noted: data not shown. The source says:
FIG. 10A is a bar graph showing the relative expression levels of beta 1 (βI) integrin on the surface of tumor cells from animals with metastasis (Mets) or no metastasis (No mets).
To better understand the role of PKC inhibitors in reducing metastasis, tumor cells, cells from primary tumors in animals with metastasis (Mets) and without metastasis (No mets) were isolated and assayed for levels of beta-1 integrin (FIG. 10A). The levels of beta-1 integrin were reduced about 50% in animals with no metastasis.

The subject of the next assay is 4T1 tumor cells. The assay is described as follows: Growth of primary tumors in vivo (number of tumor cells at primary site of injection). Set-up: species or system mice. Conditions: animals injected with 4T1 tumor cells, FIG. 6A, versus saline. How it is done:
FIG. 6A is a bar graph showing the affect of saline, the αV5-3-TAT conjugate peptide (αPKC), or the βIIV5-3-TAT conjugate peptide (βPKC) on the growth rate of primary tumors in vivo.
as §1

Bridges are numbered along the chain shown (N, C = ends). Where no end group is shown, it is not given here.

Turning to “YGRKKRRQRRR-CC-QLVIAN (YGRKKRRQRRRCCQLVIAN; disulfide 12-13 (inferred)) [αV5-3-TAT]”, the “invasion of lung tissues by tumor cells (histology)” value in the assay on tumor cells [1] was “reduced”. Besides, the “adhesion of tumor cells in the lung, imaging” value in the assay with tumor cells [2] (five days of treatment, FIGS. 7D-7E) was “reduced adhesion”; with tumor cells [2] (two days after treatment, FIGS. 7B-7C), “reduced adhesion”. The “adhesion of tumor cells to the lung” value in the assay with tumor cells [2] (treatment from two days before intravenous injection of tumor cells, FIG. 7A, versus TAT control) is on record as “reduced”. The survival time entry in the assay with tumor cells [3] is listed as “longer survival times”. The “decrease of relative levels of MMP2 activity in tumor cells” value in assay [4] was “about 30%”. In addition, the “migration of 4T1 cells in vitro” value in the assay on 4T1 cells is on record as “did not affect”. Besides, the “inhibition of growth of JC tumor cells in vitro” value with JC tumor cells was “does not substantially inhibit”. Further, in the assay on beta-1 integrin, the beta-1 integrin expression entry is on record as “tended to decrease beta-1 integrin expression but the amount was not statistically significant”. The “reduction in the number of cells at the primary tumor site” value in the assay with 4T1 tumor cells is listed as “two-fold”.

(Values after US20090137493A1, “Inhibition of tumor metastases using protein kinase C (PKC) inhibitors” (priority 2007, published 2009).)
